Measured values reported in US11987568B2, “Allosteric inhibitor of WEE1 kinase” (H. LEE MOFFITT CANCER CENTER AND RESEARCH INSTITUTE, INC., priority 2018, dated 2024).
“And” between values parts separate entries of the source, which are not always exact repeats. Equal entries are not always repeated.

What follows are molecules tested against full length human WEE1 kinase (Homo sapiens, UniProt P30291) (assay: ELISA based assay: WEE1 phosphorylation of biotinylated H2B peptide spanning Tyr37). Settings: Table 1; several values in a cell are repeat determinations.
full length human WEE1 kinase, sequence (P30291 whole entry): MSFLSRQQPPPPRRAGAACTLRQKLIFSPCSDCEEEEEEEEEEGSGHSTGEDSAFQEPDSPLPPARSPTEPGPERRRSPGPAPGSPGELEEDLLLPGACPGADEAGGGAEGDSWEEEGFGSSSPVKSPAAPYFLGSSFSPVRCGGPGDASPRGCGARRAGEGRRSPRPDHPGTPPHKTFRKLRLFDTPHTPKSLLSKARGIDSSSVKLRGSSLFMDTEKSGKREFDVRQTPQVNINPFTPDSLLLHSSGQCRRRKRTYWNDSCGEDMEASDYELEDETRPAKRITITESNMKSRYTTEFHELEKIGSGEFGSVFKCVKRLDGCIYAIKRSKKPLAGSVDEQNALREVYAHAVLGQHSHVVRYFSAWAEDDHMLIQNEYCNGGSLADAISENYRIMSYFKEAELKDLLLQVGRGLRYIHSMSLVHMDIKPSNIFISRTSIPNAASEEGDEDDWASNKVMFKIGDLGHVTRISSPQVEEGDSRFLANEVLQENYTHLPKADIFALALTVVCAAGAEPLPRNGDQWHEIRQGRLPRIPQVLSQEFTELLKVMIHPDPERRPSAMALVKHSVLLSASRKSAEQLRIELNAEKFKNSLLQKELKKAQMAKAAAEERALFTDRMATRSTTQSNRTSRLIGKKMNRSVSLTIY
Type: biochemical
Set-up: A full length human WEE1 kinase that was enzymatically active was purified from insect cell; ELISA assay % Inhibition: concentration or dose not given beside the values
Text: Designing of a Novel inhibitor Screening Platform: […] A full length human WEE1 kinase that was enzymatically active was purified from insect cell. […] NCI diversity set compound library ( 1600 compounds) was used for the screening.

| ELISA Inhibition (%) | Molecule |
| --- | --- |
| −14% | CC(C)(C)OC(=O)Nc1ccc(NC(=O)c2cccc(C(=O)Nc3ccc(NC(=O)OC(C)(C)C)cc3)c2)cc1 [SG5-099] |
| 12% | Nc1ccc(NC(=O)c2cccc(C(=O)Nc3ccc(N)cc3)c2)cc1 [SG5-103] |
| −23% | Cc1cc(C(=O)Nc2ccc(NC(=O)OC(C)(C)C)cc2)c(C)cc1C(=O)Nc1ccc(NC(=O)OC(C)(C)C)cc1 [SG5-106] |
| −8% | CC(C)(C)OC(=O)Nc1ccc(NC(=O)c2ccc(C(=O)Nc3ccc(NC(=O)OC(C)(C)C)cc3)o2)cc1 [SG5-107, Di-tert-butyl (((furan-2,5-dicarbonyl)bis(azanediyl))bis(4,1-phenylene))dicarbamate] |
| 14% | Cc1cc(C(=O)Nc2ccc(N)cc2)c(C)cc1C(=O)Nc1ccc(N)cc1 [SG5-110] |
| −17% | CC(C)(C)OC(=O)Nc1ccc(NC(=O)c2ccc(C(=O)Nc3ccc(NC(=O)OC(C)(C)C)cc3)nc2)cc1 [SG5-119, Di-tert-butyl (((pyridine-2,5-dicarbonyl)bis(azanediyl))bis(4,1-phenylene))dicarbamate] |
| −7% | CC(C)(C)OC(=O)Nc1ccc(NC(=O)[C@H]2CC[C@H](C(=O)Nc3ccc(NC(=O)OC(C)(C)C)cc3)CC2)cc1 [SG5-121] |
| −39% | CC(C)(C)OC(=O)Nc1ccc(NC(=O)c2cccc(C(=O)Nc3ccc(NC(=O)OC(C)(C)C)cc3)n2)cc1 [SG5-123] |
| 73% and 103% | Nc1ccc(NC(=O)c2ccc(C(=O)Nc3ccc(N)cc3)nc2)cc1 [SG5-124, N^2,N^5-bis(4-aminophenyl)pyridine-2,5-dicarboxamide] |
| −39% | Nc1ccc(NC(=O)[C@H]2CC[C@H](C(=O)Nc3ccc(N)cc3)CC2)cc1 [SG5-126] |
| 2% | Nc1ccc(NC(=O)c2cccc(C(=O)Nc3ccc(N)cc3)n2)cc1 [SG5-128] |
| −57% | CC(C)(C)OC(=O)Nc1ccc(NC(=O)c2ccc(C(=O)Nc3ccc(NC(=O)OC(C)(C)C)c(F)c3)cc2)cc1F [SG5-133-1] |
| −38% | CC(C)(C)OC(=O)Nc1ccc(NC(=O)c2ccc(C(=O)Nc3ccc(NC(=O)OC(C)(C)C)c(Cl)c3)cc2)cc1Cl [SG5-133-2] |
| −24% | Nc1ccc(NC(=O)c2ccc(C(=O)Nc3ccc(N)c(F)c3)cc2)cc1F [SG5-137-1] |
| −52% | Cl.Nc1ccc(NC(=O)c2ccc(C(=O)Nc3ccc(N)c(Cl)c3)cc2)cc1Cl [SG5-137-2] |
| 25% | Cc1cc(C(=O)Nc2ccc(NC(=O)OC(C)(C)C)c(F)c2)c(C)cc1C(=O)Nc1ccc(NC(=O)OC(C)(C)C)c(F)c1 [SG5-140-1] |
| 25% | CC(C)(C)OC(=O)Nc1ccc(NC(=O)c2ccc(C(=O)Nc3ccc(NC(=O)OC(C)(C)C)c(F)c3)o2)cc1F [SG5-140-2] |
| 22% | CC(C)(C)OC(=O)Nc1ccc(NC(=O)c2ccc(C(=O)Nc3ccc(NC(=O)OC(C)(C)C)c(F)c3)nc2)cc1F [SG5-140-3, Di-tert-butyl (((pyridine-2,5-dicarbonyl)bis(azanediyl))bis(2-fluoro-4,1-phenylene))dicarbamate] |
| 20% | CC(C)(C)OC(=O)Nc1ccc(NC(=O)[C@H]2CC[C@H](C(=O)Nc3ccc(NC(=O)OC(C)(C)C)c(F)c3)CC2)cc1F [SG5-140-4] |
| 24% | Cc1cc(C(=O)Nc2ccc(NC(=O)OC(C)(C)C)c(Cl)c2)c(C)cc1C(=O)Nc1ccc(NC(=O)OC(C)(C)C)c(Cl)c1 [SG5-140-5] |
| 17% | CC(C)(C)OC(=O)Nc1ccc(NC(=O)c2ccc(C(=O)Nc3ccc(NC(=O)OC(C)(C)C)c(Cl)c3)o2)cc1Cl [SG5-140-6] |
| 12% | CC(C)(C)OC(=O)Nc1ccc(NC(=O)c2ccc(C(=O)Nc3ccc(NC(=O)OC(C)(C)C)c(Cl)c3)nc2)cc1Cl [SG5-140-7] |
| 25% | CC(C)(C)OC(=O)Nc1ccc(NC(=O)C2CCC(C(=O)Nc3ccc(NC(=O)OC(C)(C)C)c(Cl)c3)CC2)cc1Cl (stereo not drawn) [SG5-140-8] |
| 18% | Cc1cc(C(=O)Nc2ccc(CNC(=O)OC(C)(C)C)cc2)c(C)cc1C(=O)Nc1ccc(CNC(=O)OC(C)(C)C)cc1 [SG5-140-9] |
| 13% | CC(C)(C)OC(=O)NCc1ccc(NC(=O)c2ccc(C(=O)Nc3ccc(CNC(=O)OC(C)(C)C)cc3)o2)cc1 [SG5-140-10] |

| ELISA Inhibition (%) | Molecule |
| --- | --- |
| −6% | CC(C)(C)OC(=O)NCc1ccc(NC(=O)c2ccc(C(=O)Nc3ccc(CNC(=O)OC(C)(C)C)cc3)nc2)cc1 [SG5-140-11, Di-tert-butyl ((((pyridine-2,5-dicarbonyl)bis(azanediyl))bis(4,1-phenylene))bis(methylene))dicarbamate] |
| 4% | CC(C)(C)OC(=O)NCc1ccc(NC(=O)C2CCC(C(=O)Nc3ccc(CNC(=O)OC(C)(C)C)cc3)CC2)cc1 (stereo not drawn) [SG5-140-12] |
| −4% | Cc1cc(C(=O)NCc2ccc(NC(=O)OC(C)(C)C)cc2)c(C)cc1C(=O)NCc1ccc(NC(=O)OC(C)(C)C)cc1 [SG5-140-13] |
| −4% | CC(C)(C)OC(=O)Nc1ccc(CNC(=O)c2ccc(C(=O)NCc3ccc(NC(=O)OC(C)(C)C)cc3)o2)cc1 [SG5-140-14] |
| 12% | CC(C)(C)OC(=O)Nc1ccc(CNC(=O)c2ccc(C(=O)NCc3ccc(NC(=O)OC(C)(C)C)cc3)nc2)cc1 [SG5-140-15] |
| 8% | CC(C)(C)OC(=O)Nc1ccc(CNC(=O)C2CCC(C(=O)NCc3ccc(NC(=O)OC(C)(C)C)cc3)CC2)cc1 (stereo not drawn) [SG5-140-16] |
| 10% | Cc1cc(C(=O)NC2CCN(C(=O)OC(C)(C)C)CC2)c(C)cc1C(=O)NC1CCN(C(=O)OC(C)(C)C)CC1 [SG5-140-17] |
| −27% | CC(C)(C)OC(=O)N1CCC(NC(=O)c2ccc(C(=O)NC3CCN(C(=O)OC(C)(C)C)CC3)o2)CC1 [SG5-140-18] |
| 28% | CC(C)(C)OC(=O)N1CCC(NC(=O)c2ccc(C(=O)NC3CCN(C(=O)OC(C)(C)C)CC3)nc2)CC1 [SG5-140-19] |
| 28% | CC(C)(C)OC(=O)N1CCC(NC(=O)C2CCC(C(=O)NC3CCN(C(=O)OC(C)(C)C)CC3)CC2)CC1 (stereo not drawn) [SG5-140-20] |
| 41% | Cc1cc(C(=O)Nc2ccc(N)c(F)c2)c(C)cc1C(=O)Nc1ccc(N)c(F)c1.Cl [SG5-147-1] |
| 37% | Cl.Nc1ccc(NC(=O)c2ccc(C(=O)Nc3ccc(N)c(F)c3)o2)cc1F [SG5-147-2] |
| 20% | Cl.Nc1ccc(NC(=O)C2CCC(C(=O)Nc3ccc(N)c(F)c3)CC2)cc1F (stereo not drawn) [SG5-147-4] |
| 2% | Cc1cc(C(=O)Nc2ccc(N)c(Cl)c2)c(C)cc1C(=O)Nc1ccc(N)c(Cl)c1.Cl [SG5-147-5] |
| 13% | Cl.Nc1ccc(NC(=O)c2ccc(C(=O)Nc3ccc(N)c(Cl)c3)o2)cc1Cl [SG5-147-6] |
| 17% | Cl.Nc1ccc(NC(=O)C2CCC(C(=O)Nc3ccc(N)c(Cl)c3)CC2)cc1Cl (stereo not drawn) [SG5-147-8] |
| 9% | Cc1cc(C(=O)Nc2ccc(CN)cc2)c(C)cc1C(=O)Nc1ccc(CN)cc1.Cl [SG5-147-9] |
| 4% | Cl.NCc1ccc(NC(=O)c2ccc(C(=O)Nc3ccc(CN)cc3)o2)cc1 [SG5-147-10] |
| −9% | Cl.NCc1ccc(NC(=O)C2CCC(C(=O)Nc3ccc(CN)cc3)CC2)cc1 (stereo not drawn) [SG5-147-12] |
| 12% | Cc1cc(C(=O)NCc2ccc(N)cc2)c(C)cc1C(=O)NCc1ccc(N)cc1.Cl [SG5-147-13] |
| −16% | Cl.Nc1ccc(CNC(=O)c2ccc(C(=O)NCc3ccc(N)cc3)o2)cc1 [SG5-147-14] |
| −14% | Cl.Nc1ccc(CNC(=O)C2CCC(C(=O)NCc3ccc(N)cc3)CC2)cc1 (stereo not drawn) [SG5-147-16] |
| 21% | Cc1cc(C(=O)NC2CCNCC2)c(C)cc1C(=O)NC1CCNCC1.Cl [SG5-147-17] |
| −5% | Cl.O=C(NC1CCNCC1)c1ccc(C(=O)NC2CCNCC2)o1 [SG5-147-18] |
| 22% | Cl.O=C(NC1CCNCC1)C1CCC(C(=O)NC2CCNCC2)CC1 (stereo not drawn) [SG5-147-20] |

| Molecule | ELISA Inhibition (%) |
| --- | --- |
| Cl.Cl.Cl.Nc1ccc(NC(=O)c2ccc(C(=O)Nc3ccc(N)c(F)c3)nc2)cc1F [SG5-147-3, (2,5-Bis((4-amino-3-fluorophenyl)carbamoyl)pyridin-1-ium-1-yl)hydridochlorate(I) dihydrochloride] | 50% |
| (2,5-Bis((4-(aminomethyl)phenyl)carbamoyl)pyridin-1-ium-1-yl)hydridochlorate(I) dihydrochloride [SG5-147-11] | 68% |

Same assay, conditions: Table 1; several values in a cell are repeat determinations; dihydrochloride

| ELISA Inhibition (%) | Molecule |
| --- | --- |
| 32% and 60% | Cl.Nc1ccc(CNC(=O)c2ccc(C(=O)NCc3ccc(N)cc3)cc2)cc1 [SG5-137-3, N^1,N^4-bis(4-aminobenzyl)terephthalamide dihydrochloride] |

Same assay, conditions: Table 3; No peptide = 100, No inhibitor = 0

| ELISA assay % Inhibition | Molecule |
| --- | --- |
| 98% | Nc1ccc(NC(=O)c2ccc(C(=O)Nc3ccc(N)cc3)nc2)cc1 [SG5-124, N^2,N^5-bis(4-aminophenyl)pyridine-2,5-dicarboxamide] |
